Experimental data: patent US10556936B2, “Immunogenic proteins and fragments thereof from allergenic mites” (ALK-ABELLÓ A/S, priority 2016, dated 2020)

Test system: HDM-specific T cells expanded from PBMCs of HDM-allergic individuals
Assay: T cell reactivity of peptides: IFN/IL-5 ELISPOT on in vitro expanded HDM-specific T cells
Assay type: cell-based, human
Settings: for SFC/donor: individual peptides 10 μg/mL; for % responder: percentage of donors that produced a response against the peptide, 10 μg/mL
Description: Each sequence of an “L” cluster was aligned separately using the MEGA software tool with ClustalW. Fifteen-mer peptides overlapping by 10 amino acids were generated and the last 15-mer peptide was added when the sequence length was not divisible by 5, 14,783 unique peptides remained.
HLA class II binding predictions optimized for global coverage were performed for the seven class II alleles (HLA-DRB1*03:01, HLA-DRB1*07:01, HLA-DRB1*15:01, HLA-DRB3*01:01, HLA-DRB3*02:02, HLA-DRB4*01:01 and HLA-DRB5*01:01) using the standalone version of the IEDB class II binding prediction tool. The median consensus percentile rank was estimated from the consensus percentile ranks for the seven alleles. Further, peptides with more than ten overlapping amino acids, which appeared because several occurrences of some sequence regions were repeated multiple times in the same sequence, were eliminated (e.g. “[…]” was repeated seven times in one sequence.) Variant peptides were also removed, retaining the better peptide based on the median consensus percentile rank and conservation among the sequences within its respective cluster. Peptides with median consensus percentile rank ≤10.0 and conserved in ≥35% of sequences in the same cluster were finally selected, also including additional selected peptides chosen to maximize DRB1 allele coverage, for a grand total of 2,589 peptides.
Peptides were purchased from Mimotopes (Clayton, Victoria, Australia) or A and A (San Diego, Calif.) as crude material on a small (1-mg) scale. Individual peptides were resuspended in DMSO at a final concentration of 40 mg/mL. Peptide “megapools” of 30-65 peptides/pool were generated. Following lyophilization, each pool was reconstituted in DMSO so that each peptide was present at a concentration of 4 mg/mL. To facilitate deconvolution of positive megapools, each megapool was further broken down in 2-6 “mesopools” (259 mesopools in total), each containing 8-14 peptides. Each mesopool was then deconvoluted to identify individual positive peptides. To avoid dimerization and polymerization of peptides by intra- and intermolecular disulfide bond formation between cysteine residues, this amino acid were in some instances substituted by a serine residue in the peptides. Such peptides are herein marked with an asterisk (*).
PBMCs from European HDM-allergic individuals were recruited in the Copenhagen region (defined by clinical history of allergy to house dust mite and specific IgE to group 1 and group 2 major allergens from Der p and/or Der f and with measured specific IgE (CAP) >0.7 kU/L towards Der p/f 1 or Der p/f 2. In addition, PBMCs from 10 US HDM-allergic individuals were recruited in San Diego (defined by Der p extract IgE titers greater than 0.35 kUA/L). PBMCs were isolated from whole blood by density gradient centrifugation according to manufacturers' instructions (Ficoll-Hypaque, Amersham Biosciences, Uppsala, Sweden). Der p- and Der f-specific extract IgE titers were determined using the ImmunoCAP system (Thermo Fisher, Uppsala, Sweden). In a separate series of experiments, pooled plasma from 10 European and 10 American HDM atopic individuals from the San Diego region, respectively, was utilized to run 2D immunoblots to elucidate IgE and IgG reactivity towards the proteins, which had at least one peptide with positive T cell response.
HDM-specific T cells were expanded in vitro. Briefly, PBMCs from HDM-allergic individuals were stimulated with HDM extract (5 μg/mL) and expanded over 14-17 days with IL-2 (added every 3 days). Cells were harvested on day 14, restimulated with HDM extract (5 μg/mL), individual peptides (10 μg/mL) or peptide pools (5 μg/mL) and screened for […]/IL-5-production by ELISPOT. Criteria for positivity were 100 or 20 spot forming cells (SFCs) per 10^6 PBMCs for peptide pools or single peptides, respectively, p<0.05, and a stimulation index >2.

Row | Substance | SFC/donor [SFC/donor] | % responder [%]
1 | 97 (NATEYWMDMFAEYHK; Immunogenic fragment) [compound 97] | 227 | 25
2 | 98 (WMDMFAEYHKTIAFD; Immunogenic fragment) [compound 98] | 8 | 5
3 | 99 (AEYHKTIAFDGAWLD; Immunogenic fragment) [compound 99] | 24 | 15
4 | 100 (TLRHKTLCMTARHYN; Immunogenic fragment) [compound 100] | 12 | 10
5 | 101 (RHYNDQLHYNLHNLY; Immunogenic fragment) [compound 101] | 10 | 5
6 | 102 (QLHYNLHNLYGFQEA; Immunogenic fragment) [compound 102] | 14 | 10
7 | 103 (QLHYNLHNLYSLSMA; Immunogenic fragment) [compound 103] | 69 | 5
8 | 104 (LHNLYSLSMAMATNA; Immunogenic fragment) [compound 104] | 29 | 10
9 | 105 (SLSMAMATNAALTKL; Immunogenic fragment) [compound 105] | 9 | 5
10 | 106 (AALTKLNKRPFIISR; Immunogenic fragment) [compound 106] | 14 | 10
11 | 107 (NEALKTTLNKRPFII; Immunogenic fragment) [compound 107] | 9 | 5
12 | 108 (NKRPFIISRATAPGH; Immunogenic fragment) [compound 108] | 146 | 5
13 | 109 (HWNGDILSDWSSMRW; Immunogenic fragment) [compound 109] | 88 | 25
14 | 110 (ILSDWSSMRWTIPSI; Immunogenic fragment) [compound 110] | 36 | 30
15 | 111 (SSMRWTIPSILNFNM; Immunogenic fragment) [compound 111] | 19 | 10
16 | 112 (PSILNFNLFGVPMIG; Immunogenic fragment) [compound 112] | 4 | 5
17 | 113 (LCIRWYQLGAFYSFA; Immunogenic fragment) [compound 113] | 40 | 15
18 | 114 (YQLGAFYSFARNHND; Immunogenic fragment) [compound 114] | 35 | 15
19 | 115 (AFYSFVRNHNTDNAI; Immunogenic fragment) [compound 115] | 15 | 20
20 | 116 (LGESVIRAARSSLQY; Immunogenic fragment) [compound 116] | 30 | 15
21 | 117 (IRAARSSLQYRYRFL; Immunogenic fragment) [compound 117] | 20 | 20
22 | 118 (SSLQYRYRFLAHLYT; Immunogenic fragment) [compound 118] | 37 | 20
23 | 119 (RYRFLAHLYTLFYHV; Immunogenic fragment) [compound 119] | 158 | 10
24 | 120 (AHLYTLFYHVHKNGG; Immunogenic fragment) [compound 120] | 8 | 5
25 | 121 (DIETQFMWGDSMLIA; Immunogenic fragment) [compound 121] | 8 | 5

Row | Substance | SFC/donor [SFC/donor] | % responder [%]
26 | 122 (FMWGDSMLIAPILYP; Immunogenic fragment) [compound 122] | 2 | 5
27 | 123 (YDDIDYVFVRGGSII; Immunogenic fragment) [compound 123] | 149 | 30
28 | 124 (DINYVFFRSGSIIPI; Immunogenic fragment) [compound 124] | 20 | 10
29 | 125 (FFRSGSIIPIQGPQN; Immunogenic fragment) [compound 125] | 5 | 5
30 | 126 (TQNINFINILGVPKL; Immunogenic fragment) [compound 126] | 72 | 15
31 | 127 (SQHLGYQTNQSIIIL; Immunogenic fragment) [compound 127] | 7 | 10
32 | 128 (YQTNQSIIILEILGI; Immunogenic fragment) [compound 128] | 10 | 10
33 | 129 (INILGVPKLPTSFKL; Immunogenic fragment) [compound 129] | 24 | 20
34 | 130 (SIIFDGKPYYQFIYT; Immunogenic fragment) [compound 130] | 55 | 5
35 | 131 (PRIIRFNYDEQTNIL; Immunogenic fragment) [compound 131] | 160 | 25
36 | 132 (GKPYYQFIYTTNNML; Immunogenic fragment) [compound 132] | 44 | 15
37 | 133 (QFIYTTNNMLIIQTK; Immunogenic fragment) [compound 133] | 47 | 5
38 | 134 (TNNMLIIQTKLSIFN; Immunogenic fragment) [compound 134] | 4 | 5
39 | 135 (IIQTKLSIFNDNDKS; Immunogenic fragment) [compound 135] | 3 | 5
40 | 136 (DKSKKIHYQFEWKFN; Immunogenic fragment) [compound 136] | 2 | 5
41 | 137 (HDNTELMKTKDFLLI; Immunogenic fragment) [compound 137] | 41 | 10
42 | 138 (YHNLIGLPAMPPFWS; Immunogenic fragment) [compound 138] | 3 | 5
43 | 139 (ELNFKVYEDAAALAK; Immunogenic fragment) [compound 139] | 16 | 10
44 | 140 (EDGLIYNIASREKAD; Immunogenic fragment) [compound 140] | 55 | 5
45 | 141 (KHEIFVVADLIDRKS; Immunogenic fragment) [compound 141] | 7 | 5
46 | 142 (DKKFLFNTAVLFDRQ; Immunogenic fragment) [compound 142] | 22 | 10
47 | 143 (FNTAVLFDRQGKLLG; Immunogenic fragment) [compound 143] | 11 | 10
48 | 144 (RYHKMHLFGEMTMNI; Immunogenic fragment) [compound 144] | 10 | 10
49 | 145 (PPKPELLVIDTELGR; Immunogenic fragment) [compound 145] | 228 | 30
50 | 146 (LLVIDTELGRLGMQI; Immunogenic fragment) [compound 146] | 54 | 20
